Experimental data from patent US10202658B2, “Methods for determining hypersusceptibility of HIV-1 to non-nucleoside reverse transcriptase inhibitors” (Monogram Biosciences, Inc., priority 2005, dated 2019).

Test system: HIV-1 clinical isolates grouped by RT mutations
Test: Pairwise comparison of NNRTI fold change between groups of clinical isolates (Student's T-test, Bonferroni's Multiple Comparison Test)
Assay type: cell-based
Method: This example provides methods and compositions for identifying mutations that correlate with hypersusceptibility to a NNRTI. Resistance test vectors were constructed and used as described in Example 1. Resistance test vectors derived from patient samples or clones derived from the resistance test vector pools were tested in a resistance assay to determine accurately and quantitatively the relative EFV, DLV, or NVP resistance or susceptibility compared to the median observed resistance or susceptibility.
To identify mutations associated with NNRTI hypersusceptibility, the following analysis was performed. […] The TAMs referenced in. Table 1 include M41L, D67N, K70R, L210W, T215FY, and K219X, while the NAMs referenced include K65R, T69X, L74IV, V75X, and M184IV. Isolates without NRTI, NNRTI or PI mutations served as a wild type (WT) reference group. Further comparison groups comprised isolates with three TAMS including T215Y (+/−H208Y, +/−V118I) or three TAMS including K70R. Scatter plots and statistical tests (See FIGS. 1-6) were generated using Prism 4.0 (GraphPad, San Diego, Calif.)
In addition, a pairwise comparison between two sets of data was conducted using Bonferroni's Multiple Comparison Test using the Prism 4.0 software. The results of the comparison are presented in Tables 2, 3, and 4, appended to the end of this document. Samples with K65R, K65R+M184V, or 2 TAMs in combination with T215Y had over 40% with EFV FC<0.4.

## CC(C)Nc1cccnc1N1CCN(C(=O)c2cc3cc(NS(C)(=O)=O)ccc3[nH]2)CC1 [DLV, delavirdine]
1 NAM vs 2 NAMs
  Mean Diff. of fold change: 0.2985
1 NAM vs 3 NAMs
  Mean Diff. of fold change: 0.293
1 NAM vs K65R
  Mean Diff. of fold change: 0.3868
1 NAM vs K65R + M184V
  Mean Diff. of fold change: 0.5114
1 NAM vs K70R_3_TAMs
  Mean Diff. of fold change: −0.5755
1 NAM vs M184V
  Mean Diff. of fold change: −0.007762
1 NAM vs T69
  Mean Diff. of fold change: −0.1256
1 NAM vs T215Y_3_TAMs
  Mean Diff. of fold change: 0.6784
1 NAM vs T215Y_3_TAMs_118
  Mean Diff. of fold change: 0.6483
1 NAM vs T215Y_3_TAMs_208
  Mean Diff. of fold change: 0.7831
1 NAM vs T215Y_3_TAMs_no118
  Mean Diff. of fold change: 0.6983
1 NAM vs T215Y_3_TAMs_no208
  Mean Diff. of fold change: 0.6612
2 NAMs vs 3 NAMs
  Mean Diff. of fold change: −0.005498
2 NAMs vs K65R
  Mean Diff. of fold change: 0.08826
2 NAMs vs K65R + M184V
  Mean Diff. of fold change: 0.2128
2 NAMs vs K70R_3_TAMs
  Mean Diff. of fold change: −0.874
2 NAMs vs M184V
  Mean Diff. of fold change: −0.3063
2 NAMs vs T69
  Mean Diff. of fold change: −0.4242
2 NAMs vs T215Y_3_TAMs
  Mean Diff. of fold change: 0.3799
2 NAMs vs T215Y_3_TAMs_118
  Mean Diff. of fold change: 0.3498
2 NAMs vs T215Y_3_TAMs_208
  Mean Diff. of fold change: 0.4845
2 NAMs vs T215Y_3_TAMs_no118
  Mean Diff. of fold change: 0.3997
2 NAMs vs T215Y_3_TAMs_no208
  Mean Diff. of fold change: 0.3627
3 NAMs vs K65R
  Mean Diff. of fold change: 0.09376
3 NAMs vs K65R + M184V
  Mean Diff. of fold change: 0.2183
3 NAMs vs K70R_3_TAMs
  Mean Diff. of fold change: −0.8685
3 NAMs vs M184V
  Mean Diff. of fold change: −0.3008
3 NAMs vs T69
  Mean Diff. of fold change: −0.4187
3 NAMs vs T215Y_3_TAMs
  Mean Diff. of fold change: 0.3854
3 NAMs vs T215Y_3_TAMs_118
  Mean Diff. of fold change: 0.3553
3 NAMs vs T215Y_3_TAMs_208
  Mean Diff. of fold change: 0.49
3 NAMs vs T215Y_3_TAMs_no118
  Mean Diff. of fold change: 0.4052
3 NAMs vs T215Y_3_TAMs_no208
  Mean Diff. of fold change: 0.3682
K65R + M184V vs K70R_3_TAMs
  Mean Diff. of fold change: −1.087
K65R + M184V vs T215Y_3_TAMs
  Mean Diff. of fold change: 0.167
K65R + M184V vs T215Y_3_TAMs_118
  Mean Diff. of fold change: 0.137
K65R + M184V vs T215Y_3_TAMs_208
  Mean Diff. of fold change: 0.2717
K65R + M184V vs T215Y_3_TAMs_no118
  Mean Diff. of fold change: 0.1869
K65R + M184V vs T215Y_3_TAMs_no208
  Mean Diff. of fold change: 0.1499
K65R vs K65R + M184V
  Mean Diff. of fold change: 0.1246
K65R vs K70R_3_TAMs
  Mean Diff. of fold change: −0.9623
K65R vs M184V
  Mean Diff. of fold change: −0.3946
K65R vs T69
  Mean Diff. of fold change: −0.5124
K65R vs T215Y_3_TAMs
  Mean Diff. of fold change: 0.2916
K65R vs T215Y_3_TAMs_118
  Mean Diff. of fold change: 0.2615
K65R vs T215Y_3_TAMs_208
  Mean Diff. of fold change: 0.3963
K65R vs T215Y_3_TAMs_no118
  Mean Diff. of fold change: 0.3115
K65R vs T215Y_3_TAMs_no208
  Mean Diff. of fold change: 0.2744
K70R_3_TAMs vs T215Y_3_TAMs_118
  Mean Diff. of fold change: 1.224
K70R_3_TAMs vs T215Y_3_TAMs_no118
  Mean Diff. of fold change: 1.274
M184V vs K65R + M184V
  Mean Diff. of fold change: 0.5191
M184V vs K70R_3_TAMs
  Mean Diff. of fold change: −0.5677
M184V vs T69
  Mean Diff. of fold change: −0.1179
M184V vs T215Y_3_TAMs
  Mean Diff. of fold change: 0.6862
M184V vs T215Y_3_TAMs_118
  Mean Diff. of fold change: 0.6561
M184V vs T215Y_3_TAMs_208
  Mean Diff. of fold change: 0.7908
M184V vs T215Y_3_TAMs_no118
  Mean Diff. of fold change: 0.706
M184V vs T215Y_3_TAMs_no208
  Mean Diff. of fold change: 0.669
T69 vs K65R + M184V
  Mean Diff. of fold change: 0.637
T69 vs K70R_3_TAMs
  Mean Diff. of fold change: −0.4499
T69 vs T215Y_3_TAMs
  Mean Diff. of fold change: 0.8041
T69 vs T215Y_3_TAMs_118
  Mean Diff. of fold change: 0.774
T69 vs T215Y_3_TAMs_208
  Mean Diff. of fold change: 0.9087
T69 vs T215Y_3_TAMs_no118
  Mean Diff. of fold change: 0.8239
T69 vs T215Y_3_TAMs_no208
  Mean Diff. of fold change: 0.7869
T215Y_3_TAMs vs K70R_3_TAMs
  Mean Diff. of fold change: −1.254
T215Y_3_TAMs vs T215Y_3_TAMs_118
  Mean Diff. of fold change: −0.03008
T215Y_3_TAMs vs T215Y_3_TAMs_208
  Mean Diff. of fold change: 0.1046
T215Y_3_TAMs vs T215Y_3_TAMs_no118
  Mean Diff. of fold change: 0.01984
T215Y_3_TAMs vs T215Y_3_TAMs_no208
  Mean Diff. of fold change: −0.01718
T215Y_3_TAMs_208 vs K70R_3_TAMs
  Mean Diff. of fold change: −1.359
T215Y_3_TAMs_208 vs T215Y_3_TAMs_118
  Mean Diff. of fold change: −0.1347
T215Y_3_TAMs_208 vs T215Y_3_TAMs_no118
  Mean Diff. of fold change: −0.0848
T215Y_3_TAMs_208 vs T215Y_3_TAMs_no208
  Mean Diff. of fold change: −0.1218
T215Y_3_TAMs_no118 vs T215Y_3_TAMs_118
  Mean Diff. of fold change: −0.04992
T215Y_3_TAMs_no208 vs K70R_3_TAMs
  Mean Diff. of fold change: −1.237
T215Y_3_TAMs_no208 vs T215Y_3_TAMs_118
  Mean Diff. of fold change: −0.0129
T215Y_3_TAMs_no208 vs T215Y_3_TAMs_no118
  Mean Diff. of fold change: 0.03702
All groups containing NAMs or the combination of TAMs shown in Table 1, p<0.0001, Student's T-test
  mean fold change (FC) compared to the WT population: significantly lower
Wt vs 1 NAM
  Mean Diff. of fold change: 0.3819
Wt vs 2 NAMs
  Mean Diff. of fold change: 0.6804
Wt vs 3 NAMs
  Mean Diff. of fold change: 0.6749
Wt vs K65R
  Mean Diff. of fold change: 0.7687
Wt vs K65R + M184V
  Mean Diff. of fold change: 0.8932
Wt vs K70R_3_TAMs
  Mean Diff. of fold change: −0.1936
Wt vs M184V
  Mean Diff. of fold change: 0.3741
Wt vs T69
  Mean Diff. of fold change: 0.2562
Wt vs T215Y_3_TAMs
  Mean Diff. of fold change: 1.06
Wt vs T215Y_3_TAMs_118
  Mean Diff. of fold change: 1.03
Wt vs T215Y_3_TAMs_208
  Mean Diff. of fold change: 1.165
Wt vs T215Y_3_TAMs_no118
  Mean Diff. of fold change: 1.08
Wt vs T215Y_3_TAMs_no208
  Mean Diff. of fold change: 1.043
